# From patent publication US12303845B2, “Method for crystallization of active pharmaceutical ingredients” (Nanoform Finland Oyj, priority 2023, dated 2025)
# Tests used:
# Format in all cases: physicochemical
# [1] = Crystallization of amorphous nanosized API in aqueous polymer solution, polymorph/crystallinity by XRD
# Procedure: XRPD measurements were carried out using the Malvern PANalytical Empyrean X-ray diffractometer equipped with a Cu Kα (1.54 Å) source, MultiCore optics and a solid-state PIXcel3D detector. By using Kapton tape the samples were attached onto aluminum or polycrystalline silicon sample holders. Dried slurries were measured without further sample preparation under Kapton tape and suspensions were filtered, dried, and filters were attached with double sided tape. The samples were measured in the reflection geometry in a spinning measurement stage. The measurement range was 5-40 (°2θ). The step size and time per step values were varied depending on the counts per second obtained.
# Determination of crystallization of API nanoparticles was evaluated via kinetic study of suspension. Accordingly, XRD measurement was done for suspension in different time points.
# Amorphous API nanoparticles (budesonide, ezetimibe, ceritinib, and apalutamide) were added as dry powders to aqueous polymer solutions. The mixtures were either • (i) mixed with a magnetic stirrer and ultrasonicated until API was completely surrounded by water (wetted). The stirring was continued for 16-24 h at ambient temperature or • (ii) blended with a metal spatula and allowed to stay at room temperature for 18-24 h.
# The suspensions formed were analyzed after 18-24 h. SEM and XRD samples were prepared as described above.
# [2] = SEM of crystallized suspensions and dried products (crystal size grade, particle size); parameters: key: 5 = nanocrystals; 1 = large crystals
# Procedure: SEM images were captured using the Zeiss Sigma 300 VP SEM instruments. Samples were dispersed into water and filtered with 0.1 μm filter. Filters were dried, transferred to SEM sample holders, and coated with a 5 nm thick layer of platinum. Amorphous API nanoparticles (budesonide, ezetimibe, ceritinib, and apalutamide) were added as dry powders to aqueous polymer solutions. The mixtures were either • (i) mixed with a magnetic stirrer and ultrasonicated until API was completely surrounded by water (wetted). The stirring was continued for 16-24 h at ambient temperature or • (ii) blended with a metal spatula and allowed to stay at room temperature for 18-24 h. The suspensions formed were analyzed after 18-24 h. SEM and XRD samples were prepared as described above. Suspension comprising nanosized APIs prepared as shown above were dried in a vacuum desiccator overnight. The solid materials were grounded to produce powders. The powders were analyzed on XRD and SEM. The powders comprising nanosized APIs were used in the stability, permeability, and dissolution tests as described above.
# [3] = Stability tests of solid material (SEM, XRD, HPLC); conditions: nanosized ceritinib composition, fresh vs stored at room temperature for one month
# Procedure: Solid material was weighted in separate vials (approx. 150 mg of material in each) and transferred to stability chambers. Three conditions were applied: ambient conditions (material in closed vial at RT), 25° C./65% RH and 40° C./75% RH. Material was analyzed at T0 as freshly prepared, T7 ([…]), T14 ([…]) and T30 (30 d) after the initiation of stability studies. SEM, XRD and dissolution/permeability studies were used to evaluate the crystallinity, particle size/morphology and performance of the material.
# [4] = Poloxamer 407 1 wt.-%, SLS 0.2 wt.-%, mAPI 25 mg/g
# [5] = Poloxamer 407 1 wt.-%, no SLS, mAPI 25 mg/g
# [6] = Poloxamer 407 2.5 wt.-%, SLS 0.2 wt.-%, mAPI 25 mg/g
# [7] = Poloxamer 407 2.5 wt.-%, no SLS, mAPI 25 mg/g
# [8] = Poloxamer 407 5 wt.-%, SLS 0.2 wt.-%, mAPI 25 mg/g
# [9] = Poloxamer 407 5 wt.-%, no SLS, mAPI 25 mg/g
# [10] = Poloxamer 407 5 wt.-%, no SLS, mAPI 150 mg/g
# [11] = Poloxamer 407 7.5 wt.-%, no SLS, mAPI 150 mg/g
# [12] = Poloxamer 407 7.5 wt.-%, no SLS, mAPI 300 mg/g
# [13] = Poloxamer 407 10 wt.-%, SLS 0.2 wt.-%, mAPI 25 mg/g
# [14] = Poloxamer 407 10 wt.-%, no SLS, mAPI 25 mg/g
# [15] = Poloxamer 407 15 wt.-%, SLS 0.2 wt.-%, mAPI 150 mg/g
# [16] = Poloxamer 407 15 wt.-%, SLS 0.2 wt.-%, mAPI 300 mg/g
# [17] = Poloxamer 407 15 wt.-%, no SLS, mAPI 150 mg/g
# [18] = Poloxamer 407 15 wt.-%, no SLS, mAPI 300 mg/g
# [19] = Poloxamer 407 15 wt.-%, no SLS, mAPI 450 mg/g
compound,measurement,setting,value
"Cc1cc(Nc2ncc(Cl)c(Nc3ccccc3S(=O)(=O)C(C)C)n2)c(OC(C)C)cc1C1CCNCC1 [Cere, ceritinib]",Polymorph,"[1]; HPMC 2.5 wt.-%, no SLS, mAPI 25 mg/g",amorphous
same,Polymorph,"[1]; PVPVA 1 wt.-%, SLS 0.2 wt.-%, mAPI 25 mg/g",amorphous
same,Polymorph,"[1]; PVPVA 2.5 wt.-%, SLS 0.2 wt.-%, mAPI 25 mg/g",amorphous
same,Polymorph,"[1]; PVPVA 2.5 wt.-%, no SLS, mAPI 25 mg/g",amorphous
same,Polymorph,"[1]; PVPVA 5 wt.-%, SLS 0.2 wt.-%, mAPI 25 mg/g",amorphous
same,Polymorph,"[1]; PVPVA 10 wt.-%, SLS 0.2 wt.-%, mAPI 25 mg/g",amorphous
same,Polymorph,[1]; [4],Form 1
same,Polymorph,[1]; [5],Form 1
same,Polymorph,[1]; [6],Form 1
same,Polymorph,[1]; [7],Form 1
same,Polymorph,[1]; [8],Form 1
same,Polymorph,[1]; [9],Form 1
same,Polymorph,[1]; [10],Form 1
same,Polymorph,[1]; [11],Form 1
same,Polymorph,[1]; [12],Form 1
same,Polymorph,[1]; [13],Form 1
same,Polymorph,[1]; [14],Form 1
same,Polymorph,[1]; [15],Form 1
same,Polymorph,[1]; [16],Form 1
same,Polymorph,[1]; [17],Form 1
same,Polymorph,[1]; [18],Form 1
same,Polymorph,[1]; [19],Form 1
same,"Grade (SEM, visual inspection)",[2]; [4],5
same,"Grade (SEM, visual inspection)",[2]; [5],5
same,"Grade (SEM, visual inspection)",[2]; [6],5
same,"Grade (SEM, visual inspection)",[2]; [7],5
same,"Grade (SEM, visual inspection)",[2]; [8],5
same,"Grade (SEM, visual inspection)",[2]; [9],5
same,"Grade (SEM, visual inspection)",[2]; [10],3
same,"Grade (SEM, visual inspection)",[2]; [11],3
same,"Grade (SEM, visual inspection)",[2]; [12],3
same,"Grade (SEM, visual inspection)",[2]; [13],5
same,"Grade (SEM, visual inspection)",[2]; [14],5
same,"Grade (SEM, visual inspection)",[2]; [15],5
same,"Grade (SEM, visual inspection)",[2]; [16],5
same,"Grade (SEM, visual inspection)",[2]; [17],5
same,"Grade (SEM, visual inspection)",[2]; [18],5
same,"Grade (SEM, visual inspection)",[2]; [19],5
same,Stability of composition by SEM,[3],good stability
